Patent US10206388B2, “Formulation component” (SYNGENTA LIMITED, priority 2011, dated 2019)

Legend:
Type in all cases: in vivo
[1] = test system: four weed species (ABUTH, CHEAL, DIGSA, SETVI); experiment: Glasshouse weed test, nicosulfuron with adjuvants, mean across species; settings: Table 27, Example 24: nicosulfuron 30 or 60 g/ha; mean over two rates, three replicates, 14 and 21 days
Procedure: The aromatic ester Finsolv® TN (C12-C15 alkyl benzoate) was tested in a glasshouse against four weed species using the herbicide nicosulfuron. An agrochemical composition was prepared containing 0.2% v/v of the adjuvant in a track sprayer, and was applied at a volume of 200 liters per hectare. Nicosulfuron was applied at either 30 or 60 grams of pesticide per hectare on each of the weed species. The weed species and their growth stage at spraying were Abutilon theophrasti (ABUTH; growth stage 13), Chenopodium album (CHEAL; growth stage 14), Digitaria sanguinalis (DIGSA; growth stage 13), and Setaria viridis (SETVI; growth stage 13).
(§1) Each spray test replicated three times. The efficacy of the herbicide was assessed visually and expressed as a percentage of the leaf area killed. Samples were assessed at time periods of 7, 14 and 20 days following application. The results shown in Table 6 below are mean averages over the two rates of nicosulfuron, three replicates and the three assessment timings, and are compared to the efficacy of nicosulfuron in the absence of an adjuvant, and nicosulfuron in the presence of the commercially available tank-mix adjuvant, Atplus411F®.
A second experiment was conducted to assess the efficacy of Finsolv® TN as an adjuvant in compositions of nicosulfuron. This was carried out as outlined above, with the following change: samples were assessed at 14 and 20 days post application.
The results shown in Table 7 below are mean averages over the two rates of nicosulfuron, three replicates and the two assessment timings, and are compared to the efficacy of nicosulfuron in the absence of an adjuvant, and nicosulfuron in the presence of the commercially available tank-mix adjuvant, Atplus411F®.
The aromatic esters Benzoate 1 (see Example 9), Benzoflex 354 (2,2,4-trimethyl-1,3-pentanediol dibenzoate) and Finsolv® SB (stearyl benzoate) were tested in a glasshouse against four weed species using the herbicide nicosulfuron. Nicosulfuron was applied at either 30 or 60 grams of pesticide per hectare on each of the weed species. The weed species and their growth stage at spraying were Abutilon theophrasti (ABUTH; growth stage 13), Chenopodium album (CHEAL; growth stage 14), Digitaria sanguinalis (DIGSA; growth stage 13), and Setaria viridis (SETVI; growth stage 13).
as §1, with “of” for “of 7,”, “Table 14” for “Table 6”, “the two” for “the three”
An agrochemical composition was prepared containing 0.2% v/v of the adjuvant in a track sprayer and was applied at a volume of 200 liters per hectare. The adjuvant oils were emulsified using a small amount of the surfactant Pluronic® PE 10500, which was present in the composition at a concentration of 0.02% v/v. Nicosulfuron was applied at either 30 or 60 grams of pesticide per hectare on each of the weed species. The weed species and their growth stage at spraying were Abutilon theophrasti (ABUTH; growth stage 13), Chenopodium album (CHEAL; growth stage 14-15), Digitaria sanguinalis (DIGSA; growth stage 14), and Setaria viridis (SETVI; growth stage 13-14).
Each spray test replicated three times. The efficacy of the herbicide was assessed visually and expressed as a percentage of the leaf area killed. Samples were assessed at time periods of 14 and 21 days following application. […]

[2] = test system: Alopecurus myosuroides (ALOMY); experiment: Glasshouse weed test, pinoxaden with adjuvants; settings: Table 12, Example 8: pinoxaden 7.5 or 15 g/ha; adjuvant 0.2% v/v; Atlas G5000 in spray tank; mean over two rates, three replicates, 7, 14 and 20 days
Procedure: (§2) The aromatic ester Finsolv® TN (C12-C15 alkyl benzoate) was tested in a glasshouse against four weed species using the herbicide pinoxaden. An agrochemical composition was prepared containing 0.2% v/v of the adjuvant in a track sprayer and was applied at a volume of 200 liters per hectare. Pinoxaden was applied at either 7.5 or 15 grams of pesticide per hectare on each of the weed species. […] The weed species and their growth stage at spraying were Alopecurus myosuroides (ALOMY; growth stage 13), Avena fatua (AVEFA; growth stage 12); Lolium perenne (LOLPE; growth stage 13), Setaria viridis (SETVI; growth stage 14).
as §1, with “test was” for “test”, “12” for “6”, “pinoxaden,” for “nicosulfuron,”, “pinoxaden” for “nicosulfuron”, “adjuvant” for “adjuvant,”, “triethylhexyl phosphate.” for “the commercially available tank-mix adjuvant, Atplus411F®.”

Avena fatua (AVEFA) = experiment: Glasshouse weed test, pinoxaden with adjuvants; settings: Table 12, Example 8: pinoxaden 7.5 or 15 g/ha; adjuvant 0.2% v/v; Atlas G5000 in spray tank; mean over two rates, three replicates, 7, 14 and 20 days
Procedure: as §2
as §1, with “test was” for “test”, “12” for “6”, “pinoxaden,” for “nicosulfuron,”, “pinoxaden” for “nicosulfuron”, “adjuvant” for “adjuvant,”, “triethylhexyl phosphate.” for “the commercially available tank-mix adjuvant, Atplus411F®.”

Lolium perenne (LOLPE) = experiment: Glasshouse weed test, pinoxaden with adjuvants; settings: Table 12, Example 8: pinoxaden 7.5 or 15 g/ha; adjuvant 0.2% v/v; Atlas G5000 in spray tank; mean over two rates, three replicates, 7, 14 and 20 days
Procedure: as §2
as §1, with “test was” for “test”, “12” for “6”, “pinoxaden,” for “nicosulfuron,”, “pinoxaden” for “nicosulfuron”, “adjuvant” for “adjuvant,”, “triethylhexyl phosphate.” for “the commercially available tank-mix adjuvant, Atplus411F®.”

Setaria viridis (SETVI) = experiment: Glasshouse weed test, pinoxaden with adjuvants; settings: Table 12, Example 8: pinoxaden 7.5 or 15 g/ha; adjuvant 0.2% v/v; Atlas G5000 in spray tank; mean over two rates, three replicates, 7, 14 and 20 days
Procedure: as §2
as §1, with “test was” for “test”, “12” for “6”, “pinoxaden,” for “nicosulfuron,”, “pinoxaden” for “nicosulfuron”, “adjuvant” for “adjuvant,”, “triethylhexyl phosphate.” for “the commercially available tank-mix adjuvant, Atplus411F®.”

[3] = test system: four weed species (ALOMY, AVEFA, LOLPE, SETVI); experiment: Glasshouse weed test, pinoxaden with adjuvants, mean across species; settings: mean over two rates
Procedure: as §2
as §1, with “test was” for “test”, “12” for “6”, “pinoxaden,” for “nicosulfuron,”, “pinoxaden” for “nicosulfuron”, “adjuvant” for “adjuvant,”, “triethylhexyl phosphate.” for “the commercially available tank-mix adjuvant, Atplus411F®.”
A second experiment was conducted to assess the efficacy of Finsolv® TN as an adjuvant for pinoxaden. This was carried out as outlined above, with the following change: samples were assessed at 14 and 20 days post application. The results shown below in Table 13 are mean averages over the two rates of pinoxaden, three replicates, the two assessment timings, and the four weed species, and are compared to the efficacy of pinoxaden in the absence of an adjuvant and pinoxaden in the presence of the common adjuvant methyl oleate.
as §2, with “An” for “The aromatic ester Finsolv® TN (C12-C15 alkyl benzoate) was tested in a glasshouse against four weed species using the herbicide pinoxaden. An”
as §1, with “test was” for “test”, “17” for “6”, “pinoxaden,” for “nicosulfuron,”, “pinoxaden” for “nicosulfuron”, “adjuvant” for “adjuvant,”, “Brij®96.” for “the commercially available tank-mix adjuvant, Atplus411F®.”
An agrochemical composition was prepared containing 0.2% v/v of the adjuvant in a track sprayer and was applied at a volume of 200 liters per hectare. The adjuvant oils were emulsified using a small amount of the surfactant Pluronic® PE 10500, which was present in the composition at a concentration of 0.02% v/v. Pinoxaden was applied at either 7.5 or 15 grams of pesticide per hectare on each of the weed species. […] The weed species and their growth stage at spraying were Alopecurus myosuroides (ALOMY; growth stage 13), Avena fatua (AVEFA; growth stage 12); Lolium perenne (LOLPE; growth stage 13), Setaria viridis (SETVI; growth stage 13-14).
Each spray test was replicated three times. The efficacy of the herbicide was assessed visually and expressed as a percentage of the leaf area killed. Samples were assessed at time periods of 14 and 21 days following application. The results shown in Table 18 below are mean averages over the two rates of pinoxaden, three replicates and the two assessment timings, and are compared to the efficacy of pinoxaden in the absence of an adjuvant and pinoxaden in the presence of tris 2ethylhexylphosphate (TEHP).
The aromatic esters Finsolv® TN and the aromatic ester ethoxylate Dermol 25-3B were tested in a glasshouse against four weed species using the herbicide pinoxaden. […]

With `CCc1cc(C)cc(CC)c1-c1c(OC(=O)C(C)(C)C)n2n(c1=O)CCOCC2` [Pinoxaden, pinoxaden] the “Mean percentage kill, Mean across species” value [1] was 46.6C %, the “Mean percentage kill ALOMY” value [2] was 1.1 B % and the “Mean percentage kill AVEFA” value (Avena fatua (AVEFA)) was 2.8 B %. For the same molecule, the “Mean percentage kill LOLPE” value (Lolium perenne (LOLPE)) was 5.0 B %, the “Mean percentage kill SETVI” value (Setaria viridis (SETVI)) was 0.8 B % and the “Mean percentage kill, Mean across species” value ([3]; Table 12, Example 8: pinoxaden 7.5 or 15 g/ha, adjuvant 0.2% v/v, Atlas G5000 in spray tank, three replicates, 7, 14 and 20 days) was 2.43 B %. For the same molecule, the “Mean percentage kill, Mean across species” value ([3]; Table 13, Example 8 second experiment: pinoxaden 7.5 or 15 g/ha, adjuvant 0.2% v/v, three replicates, 14 and 20 days, four weed species) was 0.5 B %, the “Mean percentage kill, Mean across species” value ([3]; Table 17, Example 13: pinoxaden 7.5 or 15 g/ha, adjuvant 0.2% v/v, Atlas G5000 in spray tank, three replicates, 7, 14 and 20 days) was 1.8 C % and the “Mean percentage kill, Mean across species” value ([3]; Table 18, Example 14: pinoxaden 7.5 or 15 g/ha, adjuvant 0.2% v/v emulsified with Pluronic PE 10500 0.02% v/v, three replicates, 14 and 21 days) was 2.6B %. The “Mean percentage kill, Mean across species” value ([3]; Table 22, Example 18: absence of an adjuvant, pinoxaden 7.5 or 15 g/ha, three replicates, 14 and 21 days) was 3.6E %, the “Mean percentage kill, Mean across species” value ([3]; Table 26, Example 23: pinoxaden 7.5 or 15 g/ha, adjuvant 0.2% v/v, Atlas G5000, three replicates, 14 and 21 days) was 4.0C % and the “Mean percentage kill, Mean across species” value ([3]; Table 32, Example 32: pinoxaden 7.5 or 15 g/ha, adjuvant 0.2% v/v, Atlas G5000, three replicates, 14 and 21 days) was 3.6B %.
